This data set can be described thus: Dust explosion test by Modified Hartmann Apparatus. Format: physicochemical. Set-up: key to Dust explosion class (overall): St0H: No fire or explosion; St1H: Dust fire or mild explosion; St2H: Violent explosion. The following applies: for Dust explosion Class: sieved through 63μ. As to the method: This test was performed based on procedures from VDI 2263, Part 1 (Section 2.1.1), “Dust fires and dust explosions; hazards, assessment, protective measures”, using a Modified Hartmann Apparatus. Pirfenidone was dried at 50° C. under vacuum, sieved through 63μ sieve. Weighed amount of product was charged into a modified hartmann tube of 1.2 liter volume. The product was converted into a dust cloud in glass cylindrical tube with compressed air and electrodes with continuous spark was used as ignition source to ignite the dust cloud. Based on dust fire or extent of opening of the hinged cover rating 0, 1 or 2 are assigned.

For `Cc1ccc(=O)n(-c2ccccc2)c1` [Pirfenidone, 5-methyl-1-phenyl-2-1(H)-pyridone], the “Dust explosion Class” value is, setting by setting: (Wt. of sample 120 mg, eq. dust concentration 100 g/m3) 1; (Wt. of sample 240 mg, eq. dust concentration 200 g/m3) 2. Under “summary of safety studies”, the “Dust explosion class (overall)” value is listed as “St2H”.

Values taken from US11066368B2, “Process for the preparation and particle size reduction of pirfenidone” (Laurus Labs Limited, priority 2016, dated 2021).
